This is an account of results in patent publication US20130225591A1, “IMIDOTHIAZOLE KINASE INHIBITORS” (priority 2009, published 2013).

Like-named read-outs stand apart in the source and are kept apart here. Where only a bound is given, the exact number is not on record here.

In this experiment the target is T1, CDK5-p25 kinase (Homo sapiens, UniProt Q00535).
T1 construct: purchased Invitrogen PV4677
Nature of the experiment: CDK5-p25 kinase enzymatic assay. The format is biochemical. As to conditions: 5 uM ATP, 0.3 nM CDK5-p25. As for the experimental part: CDK5-p25 kinase (Invitrogen PV4677) enzymatic activity was measured using electrophoretic separation and fluorescent detection to monitor phosphorylation of a fluorescently labeled histone H1-derived peptide substrate, FL29 (5-FAM-GGGPATPKKAKKL-CONH2, Caliper #760429)
First, 0.25 uL of serially diluted compound in DMSO at 100× concentration was transferred into each well of a 384-well polystyrene assay plate. To this was added 15 uL of a 1.67× enzyme solution (500 pM enzyme, 1 mM DTT (Sigma D9779), 1× reconstitution buffer with protease inhibitor (Caliper #700329 proprietary formulation)), followed by centrifugation for 1 min at 1000 rpm, and incubation for 5-15 min at room temperature to allow binding of compound to enzyme. To initiate the reaction, 10 uL of substrate/ATP mix (245 mM Hepes pH 7.5, 0.003% Brij 35, 0.004% Tween, 12.75 uM ATP, 3.75 uM FL29 peptide) were added to each well, followed by centrifugation at 1000 rpm for 1 min. The reaction was then incubated at room temperature for 30 min. Final assay conditions were: 0.3 nM CDK5-p25, 1.5 uM peptide, 5 uM ATP, 0.6 mM DTT, 1% DMSO, 98 mM HEPES pH 7.5.
After incubation, reactions were quenched by the addition of 45 uL Caliper termination solution (Caliper proprietary formula), followed by centrifugation at 1000 rpm for 1 min. Extent of reaction (percentage conversion of substrate to phosphorylated product) was then measured using the Caliper EZ II reader. Dose-response curves were created by plotting the inhibition of enzyme activity (normalized relative to vehicle treated and no ATP control reactions) as a function of the log of compound concentration. The curve was analyzed using a four parameter logistical fit to calculate IC50 values.

[1] abbreviates: 50 nM-99 nM, read-out: IC50 potency, CDK5-p25 kinase enzymatic assay, 50 nM-99 nM.
The mark [2] stands for this setting: '<50 nM', read-out: IC50 potency, CDK5-p25 kinase enzymatic assay, <50 nM.
Where [3] appears, read: 500 nM-3 μM, read-out: IC50 potency, CDK5-p25 kinase enzymatic assay, 500 nM-3 μM.
[4] abbreviates: read-out: IC50 potency, CDK5-p25 kinase enzymatic assay, 100 nM-499 nM.

T1 sequence (Q00535 whole entry): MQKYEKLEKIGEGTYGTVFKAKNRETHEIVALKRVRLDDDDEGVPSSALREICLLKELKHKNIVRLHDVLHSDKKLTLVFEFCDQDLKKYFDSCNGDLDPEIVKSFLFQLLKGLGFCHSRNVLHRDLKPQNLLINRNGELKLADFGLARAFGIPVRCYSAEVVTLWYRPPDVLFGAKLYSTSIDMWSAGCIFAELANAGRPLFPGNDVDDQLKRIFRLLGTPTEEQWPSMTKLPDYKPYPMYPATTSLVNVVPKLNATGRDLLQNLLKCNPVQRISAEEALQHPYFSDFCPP
T1 sequence (Q15078 99-307 partner limits assumed): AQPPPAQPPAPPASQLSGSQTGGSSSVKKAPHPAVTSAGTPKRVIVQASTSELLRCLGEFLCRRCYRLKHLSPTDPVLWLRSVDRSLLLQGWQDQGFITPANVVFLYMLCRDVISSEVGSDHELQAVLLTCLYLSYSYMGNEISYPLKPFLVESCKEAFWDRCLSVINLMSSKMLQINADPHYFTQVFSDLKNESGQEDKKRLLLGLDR

Regarding `O=C(Nc1ncn2c(C(F)(F)F)csc12)C(O)c1ccc2ccccc2c1` (single isomer, unassigned) [Example 44, (R or S)-2-hydroxy-2-(2-naphthyl)-N-[3-(trifluoromethyl)imidazo[5,1-b][1,3]thiazol-7-yl]acetamide], the IC50 under setting [1] lay in the range of 50 to 99 nM.
Same read-out and setting: as for `O=C(Nc1ncn2c(C(F)(F)F)csc12)C(Cl)c1ccc2ccccc2c1` (single isomer, unassigned) [Example 45, (R or S)-2-chloro-2-(2-naphthyl)-N-[3-(trifluoromethyl)imidazo[5,1-b][1,3]thiazol-7-yl]acetamide], the figure is 50 to 99 nM.
In the case of `O=C(Cc1ccc(N2CCOC2=O)cc1)Nc1ncn2c(C(F)(F)F)csc12` [Example 1, 2-[4-(2-Oxo-1,3-oxazolidin-3-yl)phenyl]-N-[3-(trifluoromethyl)imidazo[5,1-b][1,3]thiazol-7-yl]acetamide], the IC50 under setting [2] was under 50 nM.
Consider `O=C(Cc1ccc2ccccc2c1)Nc1ncn2c(C(F)(F)F)csc12` [Example 2, 2-(2-naphthyl)-N-[3-(trifluoromethyl)imidazo[5,1-b][1,3]thiazol-7-yl]acetamide], for which the IC50 under setting [2] was under 50 nM.
Turning to `O=C(Cc1ccc2ncccc2c1)Nc1ncn2c(C(F)(F)F)csc12` [Example 3, 2-quinolin-6-yl-N-[3-(trifluoromethyl)imidazo[5,1-b][1,3]thiazol-7-yl]acetamide], the 50% inhibitory concentration (IC50) under setting [2] is under 50 nM.
On to `O=C(Cc1ccc2ccncc2c1)Nc1ncn2c(C(F)(F)F)csc12` [Example 4, 2-isoquinolin-7-yl-N-[3-(trifluoromethyl)imidazo[5,1-b][1,3]thiazol-7-yl]acetamide], for which, under setting [2], the IC50 was under 50 nM.
Regarding `O=C(Cc1ccc2cnccc2c1)Nc1ncn2c(C(F)(F)F)csc12` [Example 5, 2-isoquinolin-6-yl-N-[3-(trifluoromethyl)imidazo[5,1-b][1,3]thiazol-7-yl]acetamide], under setting [2], the IC50 is under 50 nM.
Turning to `COc1ccc2cc(CC(=O)Nc3ncn4c(C(F)(F)F)csc34)ccc2c1` [Example 6, 2-(6-methoxy-2-naphthyl)-N-[3-(trifluoromethyl)imidazo[5,1-b][1,3]thiazol-7-yl]acetamide], the half-maximal inhibitory concentration (IC50) under setting [2] is under 50 nM.
For `O=C(Cc1ccc(Cl)nc1)Nc1ncn2c(C(F)(F)F)csc12` [Example 7, 2-(6-chloropyridin-3-yl)-N-[3-(trifluoromethyl)imidazo[5,1-b][1,3]thiazol-7-yl]acetamide], the half-inhibitory concentration (IC50) under setting [2] is under 50 nM.
With `O=C(Cc1cc2ccccc2cn1)Nc1ncn2c(C(F)(F)F)csc12` [Example 8, 2-isoquinolin-3-yl-N-[3-(trifluoromethyl)imidazo[5,1-b][1,3]thiazol-7-yl]acetamide], the concentration for half-maximal inhibition (IC50) under setting [3] lay in the range of 500 to 3000 nM.
For the molecule `COc1ccc2ccc(CC(=O)Nc3ncn4c(C(F)(F)F)csc34)cc2c1` [Example 9, 2-(7-methoxy-2-naphthyl)-N-[3-(trifluoromethyl)imidazo[5,1-b][1,3]thiazol-7-yl]acetamide], the 50% inhibitory concentration (IC50) under setting [2] was under 50 nM.
As for `COc1cccc(-c2ccc(CC(=O)Nc3ncn4c(C(F)(F)F)csc34)cc2)c1` [Example 10, 2-(3′-methoxybiphenyl-4-yl)-N-[3-(trifluoromethyl)imidazo[5,1-b][1,3]thiazol-7-yl]acetamide], the IC50 under setting [4] was in the range of 100 to 499 nM.
With `O=C(Cc1ccc(-c2cccnc2)cc1)Nc1ncn2c(C(F)(F)F)csc12` [Example 11, 2-(4-pyridin-3-ylphenyl)-N-[3-(trifluoromethyl)imidazo[5,1-b][1,3]thiazol-7-yl]acetamide], the half-inhibitory concentration (IC50) under setting [2] was under 50 nM.
For the molecule `O=C(Cc1ccc(-c2ccncc2)cc1)Nc1ncn2c(C(F)(F)F)csc12` [Example 12, 2-(4-pyridin-4-ylphenyl)-N-[3-(trifluoromethyl)imidazo[5,1-b][1,3]thiazol-7-yl]acetamide], the IC50 under setting [1] was in the range of 50 to 99 nM.
On to `O=C(Cc1ccc2cccnc2c1)Nc1ncn2c(C(F)(F)F)csc12` [Example 13, 2-quinolin-7-yl-N-(3-(trifluoromethyl)imidazo[5,1-b][1,3]thiazol-7-yl]acetamide], for which the IC50 under setting [2] is under 50 nM.
Still for that read-out and setting: under `COc1cccc2cc(CC(=O)Nc3ncn4c(C(F)(F)F)csc34)ccc12` [Example 14, 2-(5-methoxy-2-naphthyl)-N-[3-(trifluoromethyl)imidazo[5,1-b][1,3]thiazol-7-yl]acetamide] stands under 50 nM.
Regarding `NC(C(=O)Nc1ncn2c(C(F)(F)F)csc12)c1ccc2ccccc2c1` (centres unmarked) [Example 15, 2-amino-2-(2-naphthyl)-N-[3-(trifluoromethyl)imidazo[5,1-b][1,3]thiazol-7-yl]acetamide], under setting [3], the IC50 is 500 to 3000 nM.
Consider `O=C(Cc1ccc(-c2cn[nH]c2)cc1)Nc1ncn2c(C(F)(F)F)csc12` [Example 16, 2-[4-(1H-pyrazol-4-yl)phenyl]-N-(3-(trifluoromethyl)imidazo[5,1-b][1,3]thiazol-7-yl]acetamide], for which the IC50 under setting [2] is under 50 nM.
For `O=C(Cc1ccc(N2CCCC2=O)cc1)Nc1ncn2c(C(F)(F)F)csc12` [Example 17, 2-[4-(2-oxopyrrolidin-1-yl)phenyl]-N-[3-(trifluoromethyl)imidazo[5,1-b][1,3]thiazol-7-yl]acetamide], under setting [1], the IC50 lay in the range of 50 to 99 nM.
Regarding `COc1ccc2cc(C(C)C(=O)Nc3ncn4c(C(F)(F)F)csc34)ccc2c1` (centres unmarked) [Example 18, 2-(6-methoxy-2-naphthyl)-N-[3-(trifluoromethyl)imidazo[5,1-b][1,3]thiazol-7-yl]propanamide], the IC50 under setting [3] fell in the range of 500 to 3000 nM.
For `O=C(Cc1ccc(-c2cc[nH]n2)cc1)Nc1ncn2c(C(F)(F)F)csc12` [Example 19, 2-[4-(1H-pyrazol-3-yl)phenyl]-N-[3-(trifluoromethyl)imidazo[5,1-b][1,3]thiazol-7-yl]acetamide], under setting [2], the concentration for half-maximal inhibition (IC50) is under 50 nM.
Consider `Cn1cc(-c2ccc(CC(=O)Nc3ncn4c(C(F)(F)F)csc34)cc2)cn1` [Example 20, 2-[4-(1-methyl-1H-pyrazol-4-yl)phenyl]-N-[3-(trifluoromethyl)imidazo[5,1-b][1,3]thiazol-7-yl]acetamide], for which the half-inhibitory concentration (IC50) under setting [1] lay in the range of 50 to 99 nM.
With `O=C(CC1CCOCC1)Nc1ncn2c(C(F)(F)F)csc12` [Example 21, 2-(tetrahydro-2H-pyran-4-yl)-N-[3-(trifluoromethyl)imidazo[5,1-b][1,3]thiazol-7-yl]acetamide], the half-maximal inhibitory concentration (IC50) under setting [4] was 100 to 499 nM.
The same measure, in the same setting: as for `Cc1cc(CC(=O)Nc2ncn3c(C(F)(F)F)csc23)on1` [Example 22, 2-(3-methylisoxazol-5-yl)-N-[3-(trifluoromethyl)imidazo[5,1-b][1,3]thiazol-7-yl]acetamide], the figure is 100 to 499 nM.
`O=C(Cc1ccc(-n2ccnc2)cc1)Nc1ncn2c(C(F)(F)F)csc12` [Example 23, 2-[4-(1H-imidazol-1-yl)phenyl]-N-[3-(trifluoromethyl)imidazo[5,1-b][1,3]thiazol-7-yl]acetamide]: under setting [1], the IC50 lay in the range of 50 to 99 nM.
As to `O=C(Cc1cccc(-c2cn[nH]c2)c1)Nc1ncn2c(C(F)(F)F)csc12` [Example 24, 2-[3-(1H-pyrazol-4-yl)phenyl]-N-[3-(trifluoromethyl)imidazo[5,1-b][1,3]thiazol-7-yl]acetamide], the IC50 under setting [2] is under 50 nM.
Take `N[C@H]1CC[C@H](CC(=O)Nc2ncn3c(C(F)(F)F)csc23)CC1` [Example 25, 2-(trans-4-amino-cyclohexyl)-N-[3-(trifluoromethyl)imidazo[5,1-b][1,3]thiazol-7-yl]acetamide]: the IC50 under setting [4] lay within 100 to 499 nM.
Turning to `O=C(Cc1ccc(-c2ccnnc2)cc1)Nc1ncn2c(C(F)(F)F)csc12` [Example 26, 2-(4-pyridazin-4-ylphenyl)-N-[3-(trifluoromethyl)imidazo[5,1-b][1,3]thiazol-7-yl]acetamide], under setting [1], the IC50 was 50 to 99 nM.
As for `NCc1ccc(CC(=O)Nc2ncn3c(C(F)(F)F)csc23)cc1` [Example 27, 2-[4-(aminomethyl)phenyl]-N-[3-(trifluoromethyl)imidazo[5,1-b][1,3]thiazol-7-yl]acetamide], the IC50 under setting [1] fell in the range of 50 to 99 nM.
For the molecule `O=C(Cc1cn2cccnc2n1)Nc1ncn2c(C(F)(F)F)csc12` [Example 28, 2-imidazo[1,2-a]pyrimidin-2-yl-N-[3-(trifluoromethyl)imidazo[5,1-b][1,3]thiazol-7-yl]acetamide], the concentration for half-maximal inhibition (IC50) under setting [3] lay within 500 to 3000 nM.
Take `O=C(Cc1cn2ccccc2n1)Nc1ncn2c(C(F)(F)F)csc12` [Example 29, 2-imidazo[1,2-a]pyridin-2-yl-N-[3-(trifluoromethyl)imidazo[5,1-b][1,3]thiazol-7-yl]acetamide]: the half-inhibitory concentration (IC50) under setting [4] fell in the range of 100 to 499 nM.
Regarding `O=C(Cc1ccc2c(c1)OCO2)Nc1ncn2c(C(F)(F)F)csc12` [Example 30, 2-(1,3-benzodioxol-5-yl)-N-[3-(trifluoromethyl)imidazo[5,1-b][1,3]thiazol-7-yl]acetamide], under setting [1], the IC50 is 50 to 99 nM.

Usually IC50 stands for the midpoint of a concentration-inhibition curve.
